# Literature values as cited in patent US10888524B2, “Immediate release tablet of dofetilide” (Enaltec Pharma Research Pvt. Ltd., priority 2018, dated 2021).
# Columns and labels:
# [1] = test system: patients with severe left ventricular dysfunction; conditions: unlike class I agents
# [2] = test system: patients with atrial as well as ventricular arrhythmias
structure (smiles),measurement,setting,value
"CN(CCOc1ccc(NS(C)(=O)=O)cc1)CCc1ccc(NS(C)(=O)=O)cc1 [Dofetilide, N-[4-[2-[methyl[2-[4-[(methylsulfonyl)amino]phenoxy]ethyl]amino]ethyl]phenyl]-methane sulfonamide]",Safety in patients with congestive heart failure,[1],safe
same,Efficacy in treating arrhythmias,[2],effective
